pIC50: −log10 of the molar value. Calls of active or inactive are those of the source.
Legend:
SUMO-activating enzyme = SUMO-activating enzyme (Homo sapiens, UniProt Q9UBT2); test: SUMOylation inhibitor hit validation, confirmation, SUMOylation inhibitor project, biochemical, AlphaScreen (AID 2018); type: functional
[1] = Luminescence Cell-Based Dose Retest to Confirm Inhibitors of Cancer Stem Cells. [Related pubchem assays (depositor defined):AID2717, AID2721]; type: functional; conditions: Homo sapiens
[2] = biological target: T1, Voltage-gated N-type calcium channel alpha-1B subunit/Amyloid beta A4 precursor protein-binding family A member 1 (Homo sapiens, UniProt Q00975+Q02410); test: disruptors of Mint-PDZ/N-type channel peptide interaction – biochemical, HTRF, set 2, SAR follow-up (AID 434980); type: functional
[3] = biological target: T1, Voltage-gated N-type calcium channel alpha-1B subunit/Amyloid beta A4 precursor protein-binding family A member 1; test: disruptors of Mint-PDZ/N-type channel peptide interaction – biochemical, HTRF, SAR follow-up (AID 2489); type: functional
[4] = biological target: Eukaryotic translation initiation factor 4H (Homo sapiens, UniProt Q15056); test: eIF4H inhibition in translation initiation, SAR follow-up (AID 435011); type: functional
[5] = biological target: Polyadenylate-binding protein 1 (Homo sapiens, UniProt P11940); test: PABP inhibition in translation initiation, SAR follow-up (AID 435018); type: functional
Sequence of Polyadenylate-binding protein 1 (P11940 whole entry): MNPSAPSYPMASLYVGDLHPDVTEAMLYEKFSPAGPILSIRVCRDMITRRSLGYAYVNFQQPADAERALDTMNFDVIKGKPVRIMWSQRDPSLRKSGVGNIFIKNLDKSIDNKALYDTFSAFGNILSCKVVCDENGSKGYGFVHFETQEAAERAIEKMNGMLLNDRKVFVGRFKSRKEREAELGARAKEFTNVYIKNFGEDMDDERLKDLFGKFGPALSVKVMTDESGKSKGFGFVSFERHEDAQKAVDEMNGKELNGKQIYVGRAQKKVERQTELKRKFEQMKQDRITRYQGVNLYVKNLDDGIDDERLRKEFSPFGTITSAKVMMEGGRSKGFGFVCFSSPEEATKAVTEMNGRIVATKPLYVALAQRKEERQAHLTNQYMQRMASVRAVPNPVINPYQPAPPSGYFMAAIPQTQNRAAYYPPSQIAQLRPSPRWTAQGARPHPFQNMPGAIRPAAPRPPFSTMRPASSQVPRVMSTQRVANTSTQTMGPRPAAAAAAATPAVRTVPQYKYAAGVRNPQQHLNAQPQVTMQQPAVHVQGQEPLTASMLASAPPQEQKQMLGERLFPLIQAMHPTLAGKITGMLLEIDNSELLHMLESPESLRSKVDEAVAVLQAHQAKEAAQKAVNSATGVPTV

HEK293 [6] = test: NOD1 signaling inhibitors, primary screen, cell-based, luminescence, uHTS (AID 1578); type: functional; conditions: Homo sapiens
HEK293 [7] = test: cells; type: functional, cell-based; conditions: Homo sapiens
cells [8] = type: functional, cell-based
HEK293 [9] = test: cells; type: functional, cell-based; conditions: Homo sapiens; remark: listed apart in the source
[10] = biological target: Nucleotide-binding oligomerization domain-containing protein 2 (Homo sapiens, UniProt Q9HC29); test: NOD2 signaling inhibitors, cell-based, luminescence, uHTS, HEK293 (AID 1566); type: functional
HEK293 [11] = test: NOD2 signaling inhibitors in MDP-stimulated cells, cell-based, uHTS, luminescence (AID 2001); type: functional; conditions: Homo sapiens
HEK293 [12] = test: cells; type: functional, cell-based; conditions: Homo sapiens; remark: listed apart in the source
cells [13] = type: functional, cell-based; remark: listed apart in the source
Tumor necrosis factor = Tumor necrosis factor (Homo sapiens, UniProt P01375); test: TNFa-triggered NF-kB activation inhibitors, SAR follow-up, cell-based, revised (AID 2337); type: functional
Sequence of Tumor necrosis factor (P01375 whole entry, the tested form may be a part): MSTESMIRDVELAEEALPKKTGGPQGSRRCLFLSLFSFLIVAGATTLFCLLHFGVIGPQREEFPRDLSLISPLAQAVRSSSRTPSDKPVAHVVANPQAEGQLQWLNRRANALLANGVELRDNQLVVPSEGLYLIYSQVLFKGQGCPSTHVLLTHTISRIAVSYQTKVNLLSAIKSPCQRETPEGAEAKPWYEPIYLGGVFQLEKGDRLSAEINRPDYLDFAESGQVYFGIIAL

[14] = biological target: T2, Nucleotide-binding oligomerization domain-containing protein 1 (Homo sapiens, UniProt Q9Y239); test: NOD1 signaling inhibitors, SAR follow-up, revised (AID 2333); type: functional
T2 sequence (Q9Y239 whole entry): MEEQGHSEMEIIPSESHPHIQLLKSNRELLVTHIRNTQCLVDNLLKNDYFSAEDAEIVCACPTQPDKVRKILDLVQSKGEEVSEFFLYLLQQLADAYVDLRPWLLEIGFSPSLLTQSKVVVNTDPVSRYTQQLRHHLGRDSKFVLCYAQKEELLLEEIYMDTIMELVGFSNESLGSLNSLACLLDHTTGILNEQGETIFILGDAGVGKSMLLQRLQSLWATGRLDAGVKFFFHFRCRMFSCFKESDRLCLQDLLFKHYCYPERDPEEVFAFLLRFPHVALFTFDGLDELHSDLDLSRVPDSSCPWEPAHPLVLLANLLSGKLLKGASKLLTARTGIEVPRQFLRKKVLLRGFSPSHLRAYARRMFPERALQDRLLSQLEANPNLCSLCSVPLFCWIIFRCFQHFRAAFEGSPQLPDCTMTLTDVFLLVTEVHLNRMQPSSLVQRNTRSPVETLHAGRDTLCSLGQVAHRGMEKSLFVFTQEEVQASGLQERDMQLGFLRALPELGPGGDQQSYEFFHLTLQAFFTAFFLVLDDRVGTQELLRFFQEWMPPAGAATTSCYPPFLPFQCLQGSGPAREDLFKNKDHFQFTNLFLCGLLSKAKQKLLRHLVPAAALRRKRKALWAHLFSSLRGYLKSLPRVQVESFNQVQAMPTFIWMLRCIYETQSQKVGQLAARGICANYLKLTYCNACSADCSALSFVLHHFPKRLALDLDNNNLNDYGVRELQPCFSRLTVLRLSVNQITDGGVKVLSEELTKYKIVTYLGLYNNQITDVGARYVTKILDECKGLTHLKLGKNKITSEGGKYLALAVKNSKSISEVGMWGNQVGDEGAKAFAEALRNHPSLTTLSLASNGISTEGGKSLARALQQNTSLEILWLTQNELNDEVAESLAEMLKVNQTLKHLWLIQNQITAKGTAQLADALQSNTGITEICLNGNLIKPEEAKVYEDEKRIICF

INS1 = test: beta cell apoptosis inhibitors, cytokine rescue, dose response, luminescence, retest (AID 449756); type: functional, cell-based; conditions: Rattus norvegicus;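 also: cell death triggered by IL-1 beta plus TNF-alpha plus IFN-gamma mixture; protective hits raise ATP signal compared with cytokine alone wells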
HEK293 [15] = test: cells; conditions: Homo sapiens
[16] = biological target: Peroxisome proliferator-activated receptor gamma/Nuclear receptor coactivator 1 (Homo sapiens, UniProt P37231); test: (§1) TR-FRET dose response biochemical High Throughput Screening assay for agonists of the steroid receptor coactivator 1 (SRC-1) recruitment by the peroxisome proliferator-activated receptor gamma (PPAR gamma): non-selective agonists. [Related pubchem assays (depositor defined):AID1300, AID1808, AID504735, AID631]; type: protein assay
Sequence of Peroxisome proliferator-activated receptor gamma/Nuclear receptor coactivator 1 (P37231 whole entry): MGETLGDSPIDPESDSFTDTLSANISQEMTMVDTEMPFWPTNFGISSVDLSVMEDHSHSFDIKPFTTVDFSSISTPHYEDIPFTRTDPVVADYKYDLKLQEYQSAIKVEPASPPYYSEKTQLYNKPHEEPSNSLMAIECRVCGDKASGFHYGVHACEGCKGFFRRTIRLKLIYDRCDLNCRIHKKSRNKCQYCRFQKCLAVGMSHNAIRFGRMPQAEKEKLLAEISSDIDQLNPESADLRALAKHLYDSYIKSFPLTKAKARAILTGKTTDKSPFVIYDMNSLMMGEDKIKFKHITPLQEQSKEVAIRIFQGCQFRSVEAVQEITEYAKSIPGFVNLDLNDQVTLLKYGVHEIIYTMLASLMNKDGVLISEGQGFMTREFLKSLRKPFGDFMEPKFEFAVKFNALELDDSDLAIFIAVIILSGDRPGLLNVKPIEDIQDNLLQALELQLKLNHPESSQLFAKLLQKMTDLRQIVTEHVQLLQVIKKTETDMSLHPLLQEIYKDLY
Sequence of Peroxisome proliferator-activated receptor gamma/Nuclear receptor coactivator 1 (Q15788 whole entry, further chain): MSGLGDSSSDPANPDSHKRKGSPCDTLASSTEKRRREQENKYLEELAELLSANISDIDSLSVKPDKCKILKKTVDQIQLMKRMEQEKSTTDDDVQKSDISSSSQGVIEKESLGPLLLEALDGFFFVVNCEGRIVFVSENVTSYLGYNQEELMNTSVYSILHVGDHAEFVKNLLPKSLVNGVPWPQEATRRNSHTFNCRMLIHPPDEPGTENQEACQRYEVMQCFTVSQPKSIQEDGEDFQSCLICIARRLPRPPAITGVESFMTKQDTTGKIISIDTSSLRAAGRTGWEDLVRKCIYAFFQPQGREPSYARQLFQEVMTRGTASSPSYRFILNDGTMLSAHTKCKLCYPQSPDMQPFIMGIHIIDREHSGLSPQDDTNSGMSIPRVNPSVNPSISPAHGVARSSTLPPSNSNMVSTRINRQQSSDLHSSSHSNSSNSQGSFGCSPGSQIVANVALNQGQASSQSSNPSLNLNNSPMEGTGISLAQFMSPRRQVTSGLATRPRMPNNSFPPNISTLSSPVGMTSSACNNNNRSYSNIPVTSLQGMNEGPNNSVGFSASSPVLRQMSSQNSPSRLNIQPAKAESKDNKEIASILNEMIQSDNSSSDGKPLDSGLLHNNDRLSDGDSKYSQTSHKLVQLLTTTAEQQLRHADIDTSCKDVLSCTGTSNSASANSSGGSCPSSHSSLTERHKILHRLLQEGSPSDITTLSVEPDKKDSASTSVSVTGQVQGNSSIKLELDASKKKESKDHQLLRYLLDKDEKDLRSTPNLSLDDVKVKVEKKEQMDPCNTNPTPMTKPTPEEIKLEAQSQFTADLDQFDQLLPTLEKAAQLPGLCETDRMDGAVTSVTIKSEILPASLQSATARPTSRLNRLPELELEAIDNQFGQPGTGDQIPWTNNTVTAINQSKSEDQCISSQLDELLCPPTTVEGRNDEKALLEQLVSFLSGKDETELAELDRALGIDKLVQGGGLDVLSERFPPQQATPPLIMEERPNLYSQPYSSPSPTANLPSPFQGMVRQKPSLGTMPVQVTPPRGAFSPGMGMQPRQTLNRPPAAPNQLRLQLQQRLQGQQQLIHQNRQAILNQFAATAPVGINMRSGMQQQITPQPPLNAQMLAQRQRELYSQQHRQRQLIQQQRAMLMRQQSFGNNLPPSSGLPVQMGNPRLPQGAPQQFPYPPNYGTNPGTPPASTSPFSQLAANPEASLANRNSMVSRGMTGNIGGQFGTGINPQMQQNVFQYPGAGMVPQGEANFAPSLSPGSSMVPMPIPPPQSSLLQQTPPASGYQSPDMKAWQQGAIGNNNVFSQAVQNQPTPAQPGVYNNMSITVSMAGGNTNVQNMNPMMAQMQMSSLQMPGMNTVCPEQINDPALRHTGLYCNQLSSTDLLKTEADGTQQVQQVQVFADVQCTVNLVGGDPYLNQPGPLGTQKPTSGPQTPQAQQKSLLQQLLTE

[17] = biological target: Peroxisome proliferator-activated receptor gamma/Nuclear receptor coactivator 3 (Homo sapiens, UniProt P37231); test: as §1, with “3 (SRC-3)” for “1 (SRC-1)”, “assays: 1301 (Confirmation screen.), 1048 (Primary screen.)]” for “assays (depositor defined):AID1300, AID1808, AID504735, AID631]”; type: functional
[18] = biological target: Peroxisome proliferator-activated receptor gamma/Nuclear receptor coactivator 2 (Homo sapiens, UniProt P37231); test: TR-FRET dose response biochemical High Throughput Screening assay for agonists of the steroid receptor coactivator 2 (SRC-2) recruitment by the peroxisome proliferator-activated receptor gamma (PPAR gamma): non-selective agonists. [Related pubchem assays: 1297, 1032 ]; type: functional
Sequence of Peroxisome proliferator-activated receptor gamma/Nuclear receptor coactivator 2 (P37231 whole entry): as the sequence (P37231 whole entry) above
Sequence of Peroxisome proliferator-activated receptor gamma/Nuclear receptor coactivator 2 (Q15596 whole entry, further chain): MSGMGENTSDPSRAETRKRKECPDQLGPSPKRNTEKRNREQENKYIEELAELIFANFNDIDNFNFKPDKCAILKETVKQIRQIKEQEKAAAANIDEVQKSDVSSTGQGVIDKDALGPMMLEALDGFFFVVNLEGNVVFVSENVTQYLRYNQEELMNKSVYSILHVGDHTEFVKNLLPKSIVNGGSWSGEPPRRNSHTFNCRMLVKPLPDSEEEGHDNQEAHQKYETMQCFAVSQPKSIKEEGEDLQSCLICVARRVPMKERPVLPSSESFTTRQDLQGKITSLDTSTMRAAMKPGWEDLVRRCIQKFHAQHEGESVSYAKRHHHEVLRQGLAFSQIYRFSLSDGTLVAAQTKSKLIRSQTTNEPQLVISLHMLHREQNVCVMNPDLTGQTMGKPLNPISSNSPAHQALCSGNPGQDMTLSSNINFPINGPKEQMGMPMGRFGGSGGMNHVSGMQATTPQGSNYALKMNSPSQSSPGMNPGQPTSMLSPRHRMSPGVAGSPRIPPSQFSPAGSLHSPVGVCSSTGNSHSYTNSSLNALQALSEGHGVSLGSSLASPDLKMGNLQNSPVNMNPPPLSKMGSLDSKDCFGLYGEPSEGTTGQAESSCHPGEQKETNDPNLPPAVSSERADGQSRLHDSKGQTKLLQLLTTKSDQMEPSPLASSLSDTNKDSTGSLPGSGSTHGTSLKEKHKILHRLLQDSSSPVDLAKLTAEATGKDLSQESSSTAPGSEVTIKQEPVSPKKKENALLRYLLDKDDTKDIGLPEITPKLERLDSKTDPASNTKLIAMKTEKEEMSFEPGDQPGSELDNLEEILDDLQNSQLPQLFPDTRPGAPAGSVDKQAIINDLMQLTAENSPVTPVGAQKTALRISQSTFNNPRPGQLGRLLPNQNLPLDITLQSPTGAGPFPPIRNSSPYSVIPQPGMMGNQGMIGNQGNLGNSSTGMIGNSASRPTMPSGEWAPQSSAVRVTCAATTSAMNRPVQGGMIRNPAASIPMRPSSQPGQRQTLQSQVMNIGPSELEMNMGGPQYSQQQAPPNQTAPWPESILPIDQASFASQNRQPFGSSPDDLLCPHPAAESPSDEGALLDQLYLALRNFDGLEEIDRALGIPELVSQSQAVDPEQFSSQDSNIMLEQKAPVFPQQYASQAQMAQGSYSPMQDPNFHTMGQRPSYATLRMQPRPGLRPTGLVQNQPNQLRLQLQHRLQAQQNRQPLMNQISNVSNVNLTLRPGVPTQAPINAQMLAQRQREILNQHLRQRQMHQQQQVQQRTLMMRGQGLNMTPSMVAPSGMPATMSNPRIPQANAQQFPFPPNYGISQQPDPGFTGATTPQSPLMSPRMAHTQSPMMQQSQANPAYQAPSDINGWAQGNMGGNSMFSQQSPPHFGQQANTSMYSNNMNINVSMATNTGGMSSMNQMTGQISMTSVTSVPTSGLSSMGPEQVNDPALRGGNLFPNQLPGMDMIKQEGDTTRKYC

[19] = biological target: T3, Rac GTPase-activating protein 1 (Homo sapiens, UniProt Q9H0H5); test: MgcRacGAP GTPase-activating activity inhibitors, confirmation, biochemical, ADP Hunter fluorescence, primary and confirmatory (AID 624330); type: functional
T3 sequence (Q9H0H5 whole entry): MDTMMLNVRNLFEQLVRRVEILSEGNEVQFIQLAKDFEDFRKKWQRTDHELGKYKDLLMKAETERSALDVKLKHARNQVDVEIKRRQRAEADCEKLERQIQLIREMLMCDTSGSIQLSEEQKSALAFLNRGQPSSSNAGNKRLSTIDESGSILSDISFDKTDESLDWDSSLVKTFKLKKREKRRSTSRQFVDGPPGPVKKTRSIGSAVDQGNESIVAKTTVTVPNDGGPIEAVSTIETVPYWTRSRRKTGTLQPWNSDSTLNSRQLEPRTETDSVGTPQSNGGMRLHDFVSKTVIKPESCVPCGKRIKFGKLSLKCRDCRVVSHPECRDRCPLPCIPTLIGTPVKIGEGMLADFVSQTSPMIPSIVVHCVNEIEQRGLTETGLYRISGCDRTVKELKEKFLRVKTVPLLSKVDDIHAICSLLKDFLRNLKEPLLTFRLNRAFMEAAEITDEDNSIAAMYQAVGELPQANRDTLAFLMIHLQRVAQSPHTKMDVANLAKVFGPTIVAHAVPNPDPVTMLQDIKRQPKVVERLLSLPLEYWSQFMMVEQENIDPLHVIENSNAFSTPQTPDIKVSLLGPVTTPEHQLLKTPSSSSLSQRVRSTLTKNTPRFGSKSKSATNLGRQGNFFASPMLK

[20] = biological target: T4, Kappa-type opioid receptor (Homo sapiens, UniProt P41145); type: functional
Beta-galactosidase = Beta-galactosidase (Escherichia coli, UniProt Q8VNN2); type: functional
[21] = biological target: T4, Kappa-type opioid receptor; type: functional; remark: listed apart in the source
Nonstructural protein 1 = Nonstructural protein 1 (Influenza A virus, UniProt Q194T2); type: functional, Influenza A virus (A/California/07/2009(H1N1))
[22] = biological target: Heat shock protein HSP 90-alpha (Homo sapiens, UniProt P07900); type: functional, organism-based
BJ = test: cytotoxicity toward Ras-transformed BJeLR fibroblasts, dose response, cell-based, alamar blue fluorescence, cherrypicked samples (AID 2631); type: functional; conditions: Homo sapiens;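 also: confirmatory dose-response assay in RAS-dependent BJ fibroblasts engineered with TERT, LT and ST, with cytotoxicity read by fluorescence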
Protein skinhead-1 = biological target: T5, Protein skinhead-1 (Caenorhabditis elegans, UniProt P34707); type: functional
T5 sequence (P34707 whole entry): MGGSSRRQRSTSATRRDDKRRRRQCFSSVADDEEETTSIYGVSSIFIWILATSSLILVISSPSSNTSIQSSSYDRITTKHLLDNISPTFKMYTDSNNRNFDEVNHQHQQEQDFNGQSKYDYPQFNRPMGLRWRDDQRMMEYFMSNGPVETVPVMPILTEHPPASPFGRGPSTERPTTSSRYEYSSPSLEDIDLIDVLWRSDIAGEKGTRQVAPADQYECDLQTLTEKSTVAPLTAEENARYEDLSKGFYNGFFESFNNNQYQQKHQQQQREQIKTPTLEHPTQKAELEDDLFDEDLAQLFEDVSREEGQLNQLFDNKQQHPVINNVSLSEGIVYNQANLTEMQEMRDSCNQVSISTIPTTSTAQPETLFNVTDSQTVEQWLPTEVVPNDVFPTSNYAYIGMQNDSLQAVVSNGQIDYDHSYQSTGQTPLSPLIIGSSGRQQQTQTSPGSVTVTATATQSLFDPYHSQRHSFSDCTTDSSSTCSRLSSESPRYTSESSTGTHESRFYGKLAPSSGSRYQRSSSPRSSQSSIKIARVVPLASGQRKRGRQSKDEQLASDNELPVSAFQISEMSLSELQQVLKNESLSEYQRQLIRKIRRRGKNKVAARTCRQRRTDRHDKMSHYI

Structure (SMILES): CCc1ccc(NC(=O)C(CC)Sc2nc3cc4c(cc3c(=O)n2Cc2ccco2)OCO4)cc1 (centres undefined)
- IC50 (SUMO-activating enzyme): 48.9 µM (active)
- AC50 [1]: 8.32 µM (active)

Structure (SMILES): CC12C=CC(C)(O1)C1C(=O)N(c3ccc(F)cc3)C(=O)C12 (centres undefined)
- IC50 [2]: 8.89 µM (active)
- IC50 [3]: 10.7 µM (active)

Structure (SMILES): COc1ccccc1NC(=O)COC(=O)c1ccc(NC(N)=O)cc1
- IC50 [4]: 17.9 µM (active)
- IC50 [5]: 69.4 µM (active)

Structure (SMILES): CN(Cc1cccnc1)C(=O)c1cc(COc2ccc3ncccc3c2)on1
- EC50 (HEK293 [6]): 3.64 µM (active)
- IC50 (HEK293 [7]): 6.23 µM (active)
- EC50 (cells [8]): > 350 µM (not active)
- IC50 (HEK293 [9]): 17.3 µM (active)
- EC50 [10]: 9.78 µM (active)
- IC50 (HEK293 [11]): 8.18 µM (active)
- IC50 (HEK293 [12]): > 20 µM (inactive)
- EC50 (cells [13]): > 350 µM (not active)
- IC50 (Tumor necrosis factor): 5.24 µM (active)
- IC50 [14]: 2.92 µM (active)
- AC50 (INS1): 3.92 µM (active)
- IC50 (HEK293 [15]): > 20 µM (inactive)

Structure (SMILES): O=C(Nc1ccc(Cl)cc1)C1CCN(C(=O)c2cccs2)CC1
- IC50 [4]: > 100 µM (inactive)
- IC50 [5]: > 100 µM (inactive)

Structure (SMILES): O=C(CSc1ncnc2c1oc1ccccc12)Nc1ccccc1F
- EC50 [16]: 63.3 µM (inactive)
- EC50 [17]: 91.1 µM (not active)
- EC50 [18]: 59.2 µM (not active)

Structure (SMILES): Clc1cccc(-c2ccc(/C=N/c3ccc(N4CCOCC4)cc3)o2)c1Cl
- EC50 [16]: 49 µM (inactive)
- EC50 [17]: > 79.4 µM (not active)
- EC50 [18]: 30.5 µM (not active)
- IC50 [19]: 14.5 µM (active)

Structure (SMILES): C/C(=N\Nc1ncc(Cl)cc1Cl)c1ccccn1
- IC50 [20]: 3.47 µM (active)
- EC50 (Beta-galactosidase): > 31.5 µM (inactive)
- pIC50 [21]: < 4.49
- IC50 (Nonstructural protein 1): 12 µM (active)
- AC50 [22]: 1.84 µM (active)
- EC50 (BJ): 0.0209 µM (active)

Structure (SMILES): CC(=O)NS(=O)(=O)c1ccc(Nc2ccc([N+](=O)[O-])c3nonc23)cc1
- IC50 [20]: 13.9 µM (active)
- EC50 (Beta-galactosidase): 18.1 µM (active)
- pIC50 [21]: < 4.49
- IC50 (Protein skinhead-1): 34.7 µM (active)

Structure (SMILES): Cc1oc(-c2cc(F)ccc2F)nc1CN1CCN(c2ncnc3ccccc23)CC1
- EC50 (HEK293 [6]): 4.42 µM (active)
- IC50 (HEK293 [7]): 11.1 µM (active)
- IC50 (HEK293 [9]): 19.9 µM (active)
- IC50 (HEK293 [11]): 8.53 µM (active)
- IC50 (Tumor necrosis factor): 5.97 µM (active)
- IC50 [14]: 6.29 µM (active)
- IC50 (HEK293 [15]): > 20 µM (inactive)

Structure (SMILES): COc1ccccc1CCNC(=O)CSc1ccc(-c2ccco2)nn1
- IC50 [4]: > 100 µM (inactive)
- IC50 [5]: > 100 µM (inactive)

Structure (SMILES): O=C(CSc1ncnc2c1oc1ccccc12)NCc1ccco1
- EC50 [16]: 22.6 µM (inactive)
- EC50 [17]: > 79.4 µM (not active)
- EC50 [18]: 11.5 µM (not active)

Source: ChEMBL document CHEMBL1201862, “PubChem BioAssay data set” (2004)
